Target: T1, NTCP (Homo sapiens, UniProt Q14973)
T1 sequence (Q14973 1-349): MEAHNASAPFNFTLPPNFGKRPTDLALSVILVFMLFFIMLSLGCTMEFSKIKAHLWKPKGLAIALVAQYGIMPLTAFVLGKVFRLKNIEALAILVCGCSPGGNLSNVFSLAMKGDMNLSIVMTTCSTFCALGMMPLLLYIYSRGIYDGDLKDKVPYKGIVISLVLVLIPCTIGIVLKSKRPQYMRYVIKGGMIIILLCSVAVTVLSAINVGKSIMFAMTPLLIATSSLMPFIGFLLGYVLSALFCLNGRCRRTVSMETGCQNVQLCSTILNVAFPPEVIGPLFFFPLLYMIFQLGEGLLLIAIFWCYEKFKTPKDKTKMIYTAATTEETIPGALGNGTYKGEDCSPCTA
Experiment: [3H]-TCA uptake assay (NTCP inhibition)
Format: cell-based
Settings: IC50, given as a range, marked * (asterisk not explained)
Description: [^3H]-TCA uptake assay. PTH and HepG2-NTCP cells were cultured in PMM for 24 hours to induce NTCP expression. After treated by DMSO or test compounds for 2 hours, the cells were then incubated with 1 μM [^3H]-taurocholate acid dissolved in Na^+ Ringer's buffer (the concentration of Na was 145 mM) for 15 minutes at 37° C. Subsequently, the cells were washed once in phosphate-buffered saline (PBS) and lysed in 50 μL 1% TritonX-100 in H2O for 5 minutes at room temperature. The lysate were totally transferred into a liquid scintillation 96 well plate and mixed with 200 μL liquid scintillation cocktail (Ultima Gold XR, PerkinElmer). Liquid scintillation counting was performed on a PerkinElmer 1450 LSC liquid scintillation counter.

| Compound | IC50 [nM] |
| --- | --- |
| CCC1NC(=O)C(C2OC(Oc3cccc(OCc4cccnc4)c3)CC2C)N(C)C(=O)C(C(C)C)N(C)C(=O)C(CC(C)C)N(C)C(=O)C(CC(C)C)N(C)C(=O)C(C)NC(=O)C(C)NC(=O)C(CC(C)C)N(C)C(=O)C(C(C)C)NC(=O)C(CC(C)C)N(C)C(=O)CN(C)C1=O (stereo not drawn) [53A + B(1:1.5)-o] | 1000 to 100000 |
| CCC1NC(=O)C(C2OC(Oc3ccccc3)CC2C)N(C)C(=O)C(C(C)C)N(C)C(=O)C(CC(C)C)N(C)C(=O)C(CC(C)C)N(C)C(=O)C(C)NC(=O)C(C)NC(=O)C(CC(C)C)N(C)C(=O)C(C(C)C)NC(=O)C(CC(C)C)N(C)C(=O)CN(C)C1=O (stereo not drawn) [Compound 1B-o] | 1000 to 100000 |
| CCC1NC(=O)C(C2OC(Oc3ccc(C)cc3)CC2C)N(C)C(=O)C(C(C)C)N(C)C(=O)C(CC(C)C)N(C)C(=O)C(CC(C)C)N(C)C(=O)C(C)NC(=O)C(C)NC(=O)C(CC(C)C)N(C)C(=O)C(C(C)C)NC(=O)C(CC(C)C)N(C)C(=O)CN(C)C1=O (stereo not drawn) [Compound 2A-o] | 1000 to 100000 |

Same assay, conditions: IC50, given as a range; assay not given

| Compound | IC50 [nM] |
| --- | --- |
| CCC1NC(=O)C(C2OC(Sc3ccccc3)CC2C)N(C)C(=O)C(C(C)C)N(C)C(=O)C(CC(C)C)N(C)C(=O)C(CC(C)C)N(C)C(=O)C(C)NC(=O)C(C)NC(=O)C(CC(C)C)N(C)C(=O)C(C(C)C)NC(=O)C(CC(C)C)N(C)C(=O)CN(C)C1=O [Compound 1B, [2-((2R,3R)-3-methyl-5-(phenylthio)tetrahydrofuran-2-yl)-2-(methylamino)acetic acid]^1-cyclosporin A] | 1000 to 100000 |

Same assay, conditions: given as a range; assay not given

| Compound | IC50 [nM] |
| --- | --- |
| CCC1NC(=O)C(C2OC(Oc3cccc(OCc4ccccc4)c3)CC2C)N(C)C(=O)C(C(C)C)N(C)C(=O)C(CC(C)C)N(C)C(=O)C(CC(C)C)N(C)C(=O)C(C)NC(=O)C(C)NC(=O)C(CC(C)C)N(C)C(=O)C(C(C)C)NC(=O)C(CC(C)C)N(C)C(=O)CN(C)C1=O (single isomer, unassigned) [Compound 12A-o] | 1 to 1000 |
| CCC1NC(=O)C(C2OC(Oc3cccc(OCc4ccccc4)c3)CC2C)N(C)C(=O)C(C(C)C)N(C)C(=O)C(CC(C)C)N(C)C(=O)C(CC(C)C)N(C)C(=O)C(C)NC(=O)C(C)NC(=O)C(CC(C)C)N(C)C(=O)C(C(C)C)NC(=O)C(CC(C)C)N(C)C(=O)CN(C)C1=O (single isomer, unassigned) [Compound 12B-o] | 1 to 1000 |
| CCC1NC(=O)C(C2OC(OC(C)c3ccccc3)CC2C)N(C)C(=O)C(C(C)C)N(C)C(=O)C(CC(C)C)N(C)C(=O)C(CC(C)C)N(C)C(=O)C(C)NC(=O)C(C)NC(=O)C(CC(C)C)N(C)C(=O)C(C(C)C)NC(=O)C(CC(C)C)N(C)C(=O)CN(C)C1=O (single isomer, unassigned) [Compound 78A] | 1 to 1000 |
| CCC1NC(=O)C(C2OC(OC(C)c3ccccc3)CC2C)N(C)C(=O)C(C(C)C)N(C)C(=O)C(CC(C)C)N(C)C(=O)C(CC(C)C)N(C)C(=O)C(C)NC(=O)C(C)NC(=O)C(CC(C)C)N(C)C(=O)C(C(C)C)NC(=O)C(CC(C)C)N(C)C(=O)CN(C)C1=O (single isomer, unassigned) [Compound 78B] | 1 to 1000 |
| CCC1NC(=O)C(C2OC(OC(C)c3ccccc3)CC2C)N(C)C(=O)C(C(C)C)N(C)C(=O)C(CC(C)C)N(C)C(=O)C(CC(C)C)N(C)C(=O)C(C)NC(=O)C(C)NC(=O)C(CC(C)C)N(C)C(=O)C(C(C)C)NC(=O)C(CC(C)C)N(C)C(=O)CN(C)C1=O (single isomer, unassigned) [Compound 79A] | 1 to 1000 |
| CCC1NC(=O)C(C2OC(OCc3ccccc3OC)CC2C)N(C)C(=O)C(C(C)C)N(C)C(=O)C(CC(C)C)N(C)C(=O)C(CC(C)C)N(C)C(=O)C(C)NC(=O)C(C)NC(=O)C(CC(C)C)N(C)C(=O)C(C(C)C)NC(=O)C(CC(C)C)N(C)C(=O)CN(C)C1=O (single isomer, unassigned) [Compound 82A] | 1 to 1000 |
| CCC1NC(=O)C(C2OC(OCc3ccccc3OC)CC2C)N(C)C(=O)C(C(C)C)N(C)C(=O)C(CC(C)C)N(C)C(=O)C(CC(C)C)N(C)C(=O)C(C)NC(=O)C(C)NC(=O)C(CC(C)C)N(C)C(=O)C(C(C)C)NC(=O)C(CC(C)C)N(C)C(=O)CN(C)C1=O (single isomer, unassigned) [Compound 82B] | 1 to 1000 |
| CCC1NC(=O)C(C2OC(OCc3cccc(Cl)c3OC)CC2C)N(C)C(=O)C(C(C)C)N(C)C(=O)C(CC(C)C)N(C)C(=O)C(CC(C)C)N(C)C(=O)C(C)NC(=O)C(C)NC(=O)C(CC(C)C)N(C)C(=O)C(C(C)C)NC(=O)C(CC(C)C)N(C)C(=O)CN(C)C1=O (single isomer, unassigned) [Compound 88A] | 1 to 1000 |
| CCC1NC(=O)C(C2OC(OCc3cccc(Cl)c3OC)CC2C)N(C)C(=O)C(C(C)C)N(C)C(=O)C(CC(C)C)N(C)C(=O)C(CC(C)C)N(C)C(=O)C(C)NC(=O)C(C)NC(=O)C(CC(C)C)N(C)C(=O)C(C(C)C)NC(=O)C(CC(C)C)N(C)C(=O)CN(C)C1=O (single isomer, unassigned) [Compound 88B] | 1 to 1000 |
| CCC1NC(=O)C(C2OC(OCc3ccc(Cl)cc3Cl)CC2C)N(C)C(=O)C(C(C)C)N(C)C(=O)C(CC(C)C)N(C)C(=O)C(CC(C)C)N(C)C(=O)C(C)NC(=O)C(C)NC(=O)C(CC(C)C)N(C)C(=O)C(C(C)C)NC(=O)C(CC(C)C)N(C)C(=O)CN(C)C1=O (single isomer, unassigned) [Compound 89A] | 1 to 1000 |
| CCC1NC(=O)C(C2OC(OCc3ccc(Cl)cc3Cl)CC2C)N(C)C(=O)C(C(C)C)N(C)C(=O)C(CC(C)C)N(C)C(=O)C(CC(C)C)N(C)C(=O)C(C)NC(=O)C(C)NC(=O)C(CC(C)C)N(C)C(=O)C(C(C)C)NC(=O)C(CC(C)C)N(C)C(=O)CN(C)C1=O (single isomer, unassigned) [Compound 89B] | 1 to 1000 |
| CCC1NC(=O)C(C2OC(OCc3c(Cl)cccc3Cl)CC2C)N(C)C(=O)C(C(C)C)N(C)C(=O)C(CC(C)C)N(C)C(=O)C(CC(C)C)N(C)C(=O)C(C)NC(=O)C(C)NC(=O)C(CC(C)C)N(C)C(=O)C(C(C)C)NC(=O)C(CC(C)C)N(C)C(=O)CN(C)C1=O (single isomer, unassigned) [Compound 90A] | 1 to 1000 |
| CCC1NC(=O)C(C2OC(OCc3c(Cl)cccc3Cl)CC2C)N(C)C(=O)C(C(C)C)N(C)C(=O)C(CC(C)C)N(C)C(=O)C(CC(C)C)N(C)C(=O)C(C)NC(=O)C(C)NC(=O)C(CC(C)C)N(C)C(=O)C(C(C)C)NC(=O)C(CC(C)C)N(C)C(=O)CN(C)C1=O (single isomer, unassigned) [Compound 90B] | 1 to 1000 |
| CCC1NC(=O)C(C2OC(OC(C)c3ccc(Cl)c(Cl)c3)CC2C)N(C)C(=O)C(C(C)C)N(C)C(=O)C(CC(C)C)N(C)C(=O)C(CC(C)C)N(C)C(=O)C(C)NC(=O)C(C)NC(=O)C(CC(C)C)N(C)C(=O)C(C(C)C)NC(=O)C(CC(C)C)N(C)C(=O)CN(C)C1=O (single isomer, unassigned) [Compound 96A] | 1 to 1000 |
| CCC1NC(=O)C(C2OC(OC(C)c3ccc(Cl)c(Cl)c3)CC2C)N(C)C(=O)C(C(C)C)N(C)C(=O)C(CC(C)C)N(C)C(=O)C(CC(C)C)N(C)C(=O)C(C)NC(=O)C(C)NC(=O)C(CC(C)C)N(C)C(=O)C(C(C)C)NC(=O)C(CC(C)C)N(C)C(=O)CN(C)C1=O (single isomer, unassigned) [Compound 97A] | 1 to 1000 |
| CCC1NC(=O)C(C2OC(OCc3cc(F)c(Cl)cc3Cl)CC2C)N(C)C(=O)C(C(C)C)N(C)C(=O)C(CC(C)C)N(C)C(=O)C(CC(C)C)N(C)C(=O)C(C)NC(=O)C(C)NC(=O)C(CC(C)C)N(C)C(=O)C(C(C)C)NC(=O)C(CC(C)C)N(C)C(=O)CN(C)C1=O (single isomer, unassigned) [Compound 101A] | 1 to 1000 |
| CCC1NC(=O)C(C2OC(OCc3cc(F)c(Cl)cc3Cl)CC2C)N(C)C(=O)C(C(C)C)N(C)C(=O)C(CC(C)C)N(C)C(=O)C(CC(C)C)N(C)C(=O)C(C)NC(=O)C(C)NC(=O)C(CC(C)C)N(C)C(=O)C(C(C)C)NC(=O)C(CC(C)C)N(C)C(=O)CN(C)C1=O (single isomer, unassigned) [Compound 101B] | 1 to 1000 |
| CCC1NC(=O)C(C2OC(OCc3cc(Cl)ccc3Cl)CC2C)N(C)C(=O)C(C(C)C)N(C)C(=O)C(CC(C)C)N(C)C(=O)C(CC(C)C)N(C)C(=O)C(C)NC(=O)C(C)NC(=O)C(CC(C)C)N(C)C(=O)C(C(C)C)NC(=O)C(CC(C)C)N(C)C(=O)CN(C)C1=O [98A + B(1:1), [2-((2R,3R)-5-(2,5-dichlorobenzyloxy)-3-methyltetrahydrofuran-2-yl)-2-(methylamino)acetic acid]^1-cyclosporin A] | 1 to 1000 |
| CCC1NC(=O)C(C2OC(OCc3ccc(N4CCOCC4)cc3)CC2C)N(C)C(=O)C(C(C)C)N(C)C(=O)C(CC(C)C)N(C)C(=O)C(CC(C)C)N(C)C(=O)C(C)NC(=O)C(C)NC(=O)C(CC(C)C)N(C)C(=O)C(C(C)C)NC(=O)C(CC(C)C)N(C)C(=O)CN(C)C1=O [99A + B(1:1.1), [2-((2R,3R)-3-methyl-5-(4-morpholinobenzyloxy)tetrahydrofuran-2-yl)-2-(methylamino)acetic acid]^1-cyclosporin A] | 1 to 1000 |
| CCC1NC(=O)C(C2OC(Sc3ccc(C)cc3)CC2C)N(C)C(=O)C(C(C)C)N(C)C(=O)C(CC(C)C)N(C)C(=O)C(CC(C)C)N(C)C(=O)C(C)NC(=O)C(C)NC(=O)C(CC(C)C)N(C)C(=O)C(C(C)C)NC(=O)C(CC(C)C)N(C)C(=O)CN(C)C1=O [Compound 2A, [2-((2R,3R)-3-methyl-5-(p-tolylthio)tetrahydrofuran-2-yl)-2-(methylamino)acetic acid]^1-cyclosporin A] | 1 to 1000 |
